The text below walks through data of ChEMBL document CHEMBL1671725, “The ABC transporter AnrAB contributes to the innate resistance of Listeria monocytogenes to nisin, bacitracin, and various beta-lactam antibiotics” (2010).

Converted amounts (≈) assume the structure as drawn. Bridge positions count the residues as written; N and C are the ends. Square brackets hold non-standard residues; d marks the D form. Peptide text beside a SMILES is read from it. * marks the point of attachment. Ileψ(thiazoline)Cys = CC[C@H](C)[C@H](N)C1=N[C@H](C(=O)*)CS1; dOrn = NCCC[C@@H](N)C(=O)O

Assay type in all cases: functional
For assay [1], the system named is Listeria monocytogenes. In words: Antimicrobial activity against anrB-deficient Listeria monocytogenes EGD-e at 10 ug after 16 hrs by disk diffusion assay. The settings on record: read-out: IZ. For orientation: A growth-free zone around the sample is the usual read-out of agar diffusion tests.
The test system of assay [2] is Listeria monocytogenes. In words: Antimicrobial activity against anrB-deficient Listeria monocytogenes EGD-e assessed as growth inhibition after 16 hrs by broth dilution method relative to wild type. Background: Broth dilution looks for growth in wells or tubes with falling amounts of substance.
Assay [3] relates to Listeria monocytogenes. In words: Antimicrobial activity against Listeria monocytogenes EGD-e assessed as growth inhibition after 16 hrs by broth dilution method.
Assay [4] has as its system Listeria monocytogenes. Briefly: Antimicrobial activity against anrB-deficient Listeria monocytogenes EGD-e assessed as growth inhibition after 16 hrs by broth dilution method.
Assay [5] relates to Listeria monocytogenes. In words: Antimicrobial activity against Listeria monocytogenes EGD-e at 10 ug after 16 hrs by disk diffusion assay. Conditions: read-out: IZ.
The subject of assay [6] is Listeria monocytogenes. In words: Antimicrobial activity against mprF-deficient Listeria monocytogenes EGD-e assessed as growth inhibition after 16 hrs by broth dilution method.
For assay [7], the system named is Listeria monocytogenes. In words: Antimicrobial activity against virR-deficient Listeria monocytogenes EGD-e assessed as growth inhibition after 16 hrs by broth dilution method relative to wild type.
For assay [8], the system named is Listeria monocytogenes. Briefly: Antimicrobial activity against mprF-deficient Listeria monocytogenes EGD-e assessed as growth inhibition after 16 hrs by broth dilution method relative to wild type.
For assay [9], the system named is Listeria monocytogenes. In words: Antimicrobial activity against telA-deficient Listeria monocytogenes EGD-e assessed as growth inhibition after 16 hrs by broth dilution method relative to wild type.
Assay [10] concerns Listeria monocytogenes. In words: Antimicrobial activity against lisK-deficient Listeria monocytogenes EGD-e assessed as growth inhibition after 16 hrs by broth dilution method relative to wild type.
Assay [11] deals with Listeria monocytogenes. In words: Antimicrobial activity against lisK-deficient Listeria monocytogenes EGD-e assessed as growth inhibition after 16 hrs by broth dilution method.
In assay [12] the test system is Listeria monocytogenes. In words: Antimicrobial activity against telA-deficient Listeria monocytogenes EGD-e assessed as growth inhibition after 16 hrs by broth dilution method.
The test system of assay [13] is Listeria monocytogenes. Briefly: Antimicrobial activity against virR-deficient Listeria monocytogenes EGD-e assessed as growth inhibition after 16 hrs by broth dilution method.
In assay [14] the test system is Listeria monocytogenes. Briefly: Antimicrobial activity against anrB-deficient Listeria monocytogenes EGD-e at 100 ug after 16 hrs by disk diffusion assay. Conditions: read-out: IZ.
Assay [15] deals with Listeria monocytogenes. Briefly: Antimicrobial activity against Listeria monocytogenes EGD-e at 100 ug after 16 hrs by disk diffusion assay. Conditions: read-out: IZ.
For assay [16], the system named is Listeria monocytogenes. In words: Antimicrobial activity against anrB-deficient Listeria monocytogenes EGD-e at 30 ug after 16 hrs by disk diffusion assay. Conditions: read-out: IZ.
For assay [17], the system named is Listeria monocytogenes. In words: Antimicrobial activity against Listeria monocytogenes EGD-e at 30 ug after 16 hrs by disk diffusion assay. The settings on record: read-out: IZ.
Assay [18] relates to Listeria monocytogenes. Briefly: Antimicrobial activity against anrB-deficient Listeria monocytogenes EGD-e at 1 ug after 16 hrs by disk diffusion assay. The settings on record: read-out: IZ.
Assay [19] deals with Listeria monocytogenes. Briefly: Antimicrobial activity against Listeria monocytogenes EGD-e at 1 ug after 16 hrs by disk diffusion assay. The settings on record: read-out: IZ.
The subject of assay [20] is Listeria monocytogenes. In words: Antimicrobial activity against anrB-deficient Listeria monocytogenes EGD-e at 5 ug after 16 hrs by disk diffusion assay. Conditions: read-out: IZ.
Assay [21] relates to Listeria monocytogenes. Briefly: Antimicrobial activity against Listeria monocytogenes EGD-e at 5 ug after 16 hrs by disk diffusion assay. The settings on record: read-out: IZ.

What is called MIC is the lowest concentration that inhibits growth of the organism. On to `CC1(C)S[C@@H]2[C@H](NC(=O)[C@H](N)c3ccccc3)C(=O)N2[C@H]1C(=O)O` [AMPICILLIN], for which the results for the zone of inhibition at 10 µg/disc with Listeria monocytogenes [1] and in the assay on Listeria monocytogenes [5] were 36.6 mm and 32.8 mm, respectively. In addition, the “fold change (FC)” value in the assay with Listeria monocytogenes [2] is reported as 2. For the same compound, the MIC in the assay on Listeria monocytogenes [3] was found to be 1 µg/mL (≈ 2.86 µM); in the assay with Listeria monocytogenes [4], 0.5 µg/mL (≈ 1.43 µM).

Regarding `CC[C@H](C)[C@H](N)C1=N[C@H](C(=O)N[C@@H](CC(C)C)C(=O)N[C@H](CCC(=O)O)C(=O)N[C@H](C(=O)N[C@H]2CCCCNC(=O)[C@H](CC(N)=O)NC(=O)[C@@H](CC(=O)O)NC(=O)[C@H](Cc3cnc[nH]3)NC(=O)[C@@H](Cc3ccccc3)NC(=O)[C@H]([C@@H](C)CC)NC(=O)[C@@H](CCCN)NC2=O)[C@@H](C)CC)CS1` [BACITRACIN] ({Ileψ(thiazoline)Cys}-L[dE]IK[dOrn]I[dF]H[dD]N; lactam 4-C), the zone of inhibition at 10 µg/disc in the assay on Listeria monocytogenes [1] worked out at 20 mm; in the assay with Listeria monocytogenes [5] it was 10.5 mm. Besides, in the assay with Listeria monocytogenes [2], the “fold change (FC)” value worked out at 8. The MIC in the assay on Listeria monocytogenes [3] came out at 256 µg/mL (≈ 180 µM); in the assay with Listeria monocytogenes [4] it was 32 µg/mL (≈ 22.5 µM); in the assay with Listeria monocytogenes [6] it was 64 µg/mL (≈ 45 µM); with Listeria monocytogenes [11], 128 µg/mL (≈ 90 µM); with Listeria monocytogenes [12], 128 µg/mL (≈ 90 µM); with Listeria monocytogenes [13], 2 µg/mL (≈ 1.41 µM). Moreover, the Ratio was -128 with Listeria monocytogenes [7], -4 in the assay on Listeria monocytogenes [8], -2 in the assay on Listeria monocytogenes [9] and -2 in the assay with Listeria monocytogenes [10].

On to `CC1(C)S[C@@H]2[C@H](NC(=O)C(C(=O)O)c3ccccc3)C(=O)N2[C@H]1C(=O)O` (stereo partly drawn) [CARBENICILLIN], for which the zone of inhibition at 100 µg/disc amounted to 43 mm in the assay with Listeria monocytogenes [14] and 36.7 mm in the assay on Listeria monocytogenes [15].

For `N[C@@H](C(=O)N[C@@H]1C(=O)N2C(C(=O)O)=C(Cl)CS[C@H]12)c1ccccc1` [CEFACLOR ANHYDROUS], the zone of inhibition at 30 µg/disc in the assay on Listeria monocytogenes [16] came out at 24.8 mm; in the assay on Listeria monocytogenes [17], 22.2 mm.

As for `CO[C@@]1(NC(=O)CSCC#N)C(=O)N2C(C(=O)O)=C(CSc3nnnn3C)CS[C@@H]21` [CEFMETAZOLE], the values for the zone of inhibition at 30 µg/disc in the assay on Listeria monocytogenes [16] and with Listeria monocytogenes [17] were 34.2 mm and 31.4 mm, respectively.

For `CCN1CCN(C(=O)N[C@@H](C(=O)N[C@@H]2C(=O)N3C(C(=O)O)=C(CSc4nnnn4C)CS[C@H]23)c2ccc(O)cc2)C(=O)C1=O` [CEFOPERAZONE], the zone of inhibition at 30 µg/disc with Listeria monocytogenes [16] was found to be 24 mm; with Listeria monocytogenes [17] it was 20.6 mm.

Turning to `CO/N=C(\C(=O)N[C@@H]1C(=O)N2C(C(=O)O)=C(COC(C)=O)CS[C@H]12)c1csc(N)n1` [CEFOTAXIME], the zone of inhibition at 30 µg/disc was found to be 22.5 mm in the assay on Listeria monocytogenes [16] and 19.6 mm in the assay on Listeria monocytogenes [17]. Besides, the “fold change (FC)” value in the assay on Listeria monocytogenes [2] came out at 2. Besides, the values for the MIC in the assay with Listeria monocytogenes [3] and with Listeria monocytogenes [4] were 2 µg/mL (≈ 4.39 µM) and 1 µg/mL (≈ 2.2 µM), respectively.

Turning to `CC(C)(O/N=C(\C(=O)N[C@@H]1C(=O)N2C(C(=O)[O-])=C(C[n+]3ccccc3)CS[C@H]12)c1csc(N)n1)C(=O)O` [CEFTAZIDIME], the figures for the zone of inhibition at 30 µg/disc in the assay on Listeria monocytogenes [16] and in the assay with Listeria monocytogenes [17] were 7.8 mm and 6.1 mm, respectively.

For the compound `CO/N=C(\C(=O)N[C@@H]1C(=O)N2C(C(=O)O)=C(COC(N)=O)CS[C@H]12)c1ccco1` [CEFUROXIME], the figures for the zone of inhibition at 30 µg/disc with Listeria monocytogenes [16] and in the assay on Listeria monocytogenes [17] were 24.8 mm and 21.3 mm, respectively. For the same compound, the “fold change (FC)” value with Listeria monocytogenes [2] is given as 2. Further, the MIC was 2.87 µg/mL (≈ 6.76 µM) in the assay with Listeria monocytogenes [3] and 1.44 µg/mL (≈ 3.39 µM) in the assay on Listeria monocytogenes [4].

Regarding `CC1=C(C(=O)O)N2C(=O)[C@@H](NC(=O)[C@H](N)c3ccccc3)[C@H]2SC1` [CEPHALEXIN ANHYDROUS], the zone of inhibition at 30 µg/disc was 14.8 mm with Listeria monocytogenes [16] and 12.2 mm with Listeria monocytogenes [17].

Take `CC(=O)OCC1=C(C(=O)O)N2C(=O)[C@@H](NC(=O)Cc3cccs3)[C@H]2SC1` [CEPHALOTHIN]: the zone of inhibition at 30 µg/disc was 33.6 mm with Listeria monocytogenes [16] and 30.3 mm with Listeria monocytogenes [17].

Consider `CC1=C(C(=O)O)N2C(=O)[C@@H](NC(=O)[C@H](N)C3=CCC=CC3)[C@H]2SC1` [CEPHRADINE], for which the zone of inhibition at 30 µg/disc in the assay on Listeria monocytogenes [16] turned out to be 16.9 mm; in the assay with Listeria monocytogenes [17], 13.6 mm.

As to `C/C=C(/NC(=O)[C@H](CCCCN)NC(=O)[C@H](C)NC(=O)[C@H]1CS[C@@H](C)[C@@H](NC(=O)[C@H]2CSC[C@@H](NC(=O)[C@H](C)NC(=O)[C@@H](N)[C@@H](C)CC)C(=O)N[C@@H](CCCCN)C(=O)N[C@@H](Cc3ccccc3)C(=O)N[C@@H](CC(C)C)C(=O)N2)C(=O)N2CCC[C@H]2C(=O)NCC(=O)N1)C(=O)NCC(=O)N[C@@H]1CSC[C@H]2NC(=O)[C@H](Cc3ccc(O)cc3)NC(=O)[C@@H](CS/C=C/NC2=O)NC(=O)[C@H](CC(N)=O)NC(=O)[C@H](Cc2ccccc2)NC1=O` [GALLIDERMIN], in the assay on Listeria monocytogenes [2], the “fold change (FC)” value came to 4. Further, the minimum inhibitory concentration (MIC) with Listeria monocytogenes [3] came to 2 µg/mL (≈ 0.924 µM); in the assay on Listeria monocytogenes [4], 0.5 µg/mL (≈ 0.231 µM).

On to `C[C@@H](O)[C@H]1C(=O)N2C(C(=O)O)=C(SCCNC=N)C[C@H]12` [IMIPENEM ANHYDROUS], for which the values for the zone of inhibition at 30 µg/disc in the assay on Listeria monocytogenes [16] and in the assay with Listeria monocytogenes [17] were 42.3 mm and 39.7 mm, respectively.

Take `C=C(NC(=O)[C@@H](NC(=O)[C@H](Cc1cnc[nH]1)NC(=O)[C@@H](NC(=O)[C@H](CO)NC(=O)[C@@H]1CS[C@@H](C)[C@H]2NC(=O)C(=C)NC(=O)[C@H](NC(=O)[C@H](CCCCN)NC(=O)[C@H](CCSC)NC(=O)[C@H](CC(N)=O)NC(=O)[C@@H]3CS[C@@H](C)[C@@H](NC(=O)[C@H](CCCNN)NC(=O)[C@@H]4CS[C@@H](C)[C@@H](NC(=O)[C@@H]5CSC[C@@H](NC(=O)/C(=C\C)NC(=O)[C@@H](N)[C@@H](C)CC)C(=O)N[C@@H]([C@@H](C)CC)C(=O)NC(=C)C(=O)N[C@@H]([C@@H](C)CC)C(=O)N5)C(=O)N5CCC[C@H]5C(=O)NCC(=O)N4)C(=O)NCC(=O)N[C@@H](C)C(=O)N[C@@H]([C@@H](C)CC)C(=O)N[C@@H](CCSC)C(=O)NCC(=O)N3)[C@H](C)SC[C@H](NC2=O)C(=O)N[C@H](Cc2cnc[nH]2)C(=O)N1)[C@@H](C)CC)C(C)C)C(=O)N[C@@H](CCCCN)C(=O)O` [NISIN]: the “fold change (FC)” value in the assay with Listeria monocytogenes [2] was found to be 2. For the same compound, the Ratio is reported as -32 in the assay with Listeria monocytogenes [7], -16 in the assay with Listeria monocytogenes [8], -2 in the assay with Listeria monocytogenes [9] and 2 in the assay with Listeria monocytogenes [10].

Consider `Cc1onc(-c2ccccc2)c1C(=O)N[C@@H]1C(=O)N2[C@@H]1SC(C)(C)[C@@H]2C(=O)O` [OXACILLIN], for which the zone of inhibition at 1 µg/disc in the assay on Listeria monocytogenes [18] turned out to be 11.9 mm; in the assay on Listeria monocytogenes [19], 9.6 mm.

`CC1(C)S[C@@H]2[C@H](NC(=O)Cc3ccccc3)C(=O)N2[C@H]1C(=O)O` [PENICILLIN G]: the values for the zone of inhibition at 5 µg/disc in the assay with Listeria monocytogenes [20] and with Listeria monocytogenes [21] were 34.7 mm and 30.5 mm, respectively. Moreover, in the assay with Listeria monocytogenes [2], the “fold change (FC)” value was determined as 2. In addition, the MIC with Listeria monocytogenes [3] was 0.72 µg/mL (≈ 2.15 µM); in the assay with Listeria monocytogenes [4], 0.36 µg/mL (≈ 1.08 µM).

For `CCN1CCN(C(=O)N[C@@H](C(=O)N[C@@H]2C(=O)N3[C@@H]2SC(C)(C)[C@@H]3C(=O)O)c2ccccc2)C(=O)C1=O` [PIPERACILLIN], the zone of inhibition at 30 µg/disc came out at 35.3 mm with Listeria monocytogenes [16] and 30.7 mm with Listeria monocytogenes [17].
